T1: PamNTT1 (Candidatus Protochlamydia amoebophila, UniProt Q70GF7)
T1 construct: gene ntt1; full-length, N-terminal His tag (pET16b)
T1 sequence (Q70GF7 1-513): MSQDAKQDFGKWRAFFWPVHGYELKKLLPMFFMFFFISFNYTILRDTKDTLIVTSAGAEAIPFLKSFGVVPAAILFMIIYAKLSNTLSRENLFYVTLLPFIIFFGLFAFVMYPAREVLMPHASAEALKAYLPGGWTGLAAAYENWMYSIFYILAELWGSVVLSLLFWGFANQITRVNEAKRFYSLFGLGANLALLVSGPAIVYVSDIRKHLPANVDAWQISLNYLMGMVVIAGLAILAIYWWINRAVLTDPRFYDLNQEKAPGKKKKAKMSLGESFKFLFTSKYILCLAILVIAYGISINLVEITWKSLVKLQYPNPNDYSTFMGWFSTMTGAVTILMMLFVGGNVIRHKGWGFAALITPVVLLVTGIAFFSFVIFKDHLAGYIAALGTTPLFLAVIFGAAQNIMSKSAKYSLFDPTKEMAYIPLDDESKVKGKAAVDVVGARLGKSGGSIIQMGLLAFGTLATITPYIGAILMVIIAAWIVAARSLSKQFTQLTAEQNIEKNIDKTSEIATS


How the values were obtained:
PamNTT1 = target: T1, PamNTT1; assay: [α[…]]ADP uptake into proteoliposomes, anion exchange separation; assay type: biochemical; conditions: apparent; ADP import in homo-exchange with 10 mM luminal ADP; pH 7.5; 30 °C; labelled compound
purified protein = substrate: Nc1ncnc2c1ncn2[C@@H]1O[C@H](COP(=O)(O)OP(=O)(O)OP(=O)(O)O)[C@@H](O)[C@H]1O; assay: purified protein; assay type: biochemical, Candidatus Protochlamydia amoebophila; conditions: apparent, ATP import in exchange with 10 mM luminal ADP, pH 7.5, 30 °C, labelled compound

Molecule | K M (PamNTT1) | Km (purified protein)
Nc1ncnc2c1ncn2[C@@H]1O[C@H](COP(=O)(O)OP(=O)(O)O)[C@@H](O)[C@H]1O [ADP] | Approximately equivalent K M values were estimated for the ADPim/ADPex and ATPim/ATPex homo-exchange mode | 
PamNTT1 (Candidatus Protochlamydia amoebophila UWE25) (protein, full-length, N-terminal His tag (pET16b)) MSQDAKQDFGKWRAFFWPVHGYELKKLLPMFFMFFFISFNYTILRDTKDTLIVTSAGAEAIPFLKSFGVVPAAILFMIIYAKLSNTLSRENLFYVTLLPFIIFFGLFAFVMYPAREVLMPHASAEALKAYLPGGWTGLAAAYENWMYSIFYILAELWGSVVLSLLFWGFANQITRVNEAKRFYSLFGLGANLALLVSGPAIVYVSDIRKHLPANVDAWQISLNYLMGMVVIAGLAILAIYWWINRAVLTDPRFYDLNQEKAPGKKKKAKMSLGESFKFLFTSKYILCLAILVIAYGISINLVEITWKSLVKLQYPNPNDYSTFMGWFSTMTGAVTILMMLFVGGNVIRHKGWGFAALITPVVLLVTGIAFFSFVIFKDHLAGYIAALGTTPLFLAVIFGAAQNIMSKSAKYSLFDPTKEMAYIPLDDESKVKGKAAVDVVGARLGKSGGSIIQMGLLAFGTLATITPYIGAILMVIIAAWIVAARSLSKQFTQLTAEQNIEKNIDKTSEIATS |  | 17 µM

Source: publication PMC1951785, “Enlightening Energy Parasitism by Analysis of an ATP/ADP Transporter from Chlamydiae” (PLoS Biology, 2007)
